Source: patent US20230167101A1, “NOVEL INHIBITORS OF HISTONE […] P300/CBP FOR CANCER THERAPY” (BAYLOR COLLEGE OF MEDICINE, priority 2020, published 2023)
Several values for one entry are separate records, joined by “and”; a condition that tells them apart may be missing. Equal entries are not always repeated. Entries after “also recorded” stand apart in the source; their conditions may differ.

What was measured:
MDA-PANC-28 = assay: Cell growth inhibition, MDA-PANC-28 (MTT); assay type: cell-based; conditions: MDA-PANC-28, 5 days; read-out: EC50, antiproliferative activity
Procedure: (§1) The anti-proliferation assays for non-breast cancer cells were done using a previously developed assay. In brief, for Kasumi-1 cells, […] were added into 96-well plates and cultured with increasing concentrations of a compound in RPMI-1640 medium supplemented with 20% fetal bovine serum and penicillin (100 U/mL) and streptomycin (100 µg/mL) at 37° C. in a 5% CO2 atmosphere with 100% humidity. For solid tumor cells, 10^5 cells per well were added into 96-well plates and cultured in Dulbecco’s Modified Eagle’s Medium (DMEM) supplemented with 10% fetal bovine serum and penicillin (100 U/mL) and streptomycin (100 µg/mL) overnight. Upon addition of increasing concentrations of a compound, cells were incubated for 5 days. Cell viability was assessed by using an XTT assay kit (Roche) for leukemia cells or an MTT assay (Sigma) for attachment cells. For the breast cancer MCF-7 cells, culture and inhibition assays were performed according to our previous methods in Ref. 25 and 26. Compound EC50 values were calculated from dose response curves using Prism 5.0.

Myst3 = biological target: T1, Myst3 (Homo sapiens, UniProt Q92794); assay: Myst3 HAT inhibition assay; assay type: biochemical
T1 construct: made in house

Kasumi-1 leukemia cells = assay: Cellular histone acetylation, Western blot; assay type: cell-based; conditions: Kasumi-1 cells, 12 h, 5 and 10 µM
Procedure: Kasumi-1 leukemia cells were treated with increasing concentrations of these compounds for 12 h. Histone was extracted and subjected to electrophoresis separation and Western blot staining to determine levels of acetylation at various lysine residues. […] H3K27 seems to be the most sensitive cellular substrate of p300 HAT. […] This might be due to different mode of inhibition or cell permeability for the two compounds.
About 10^6 Kasumi-1 cells per well were incubated with compound 11 at 0, 5 and 10 µM for 12 hours. Histone proteins were extracted using EpiQuik total histone extraction kit (Epigentek), according to the manufacturer’s protocol. Equal amounts of histones (2 µg) were separated on SDS-PAGE and transferred to PVDF membranes. The blots were probed with primary antibodies against H3K9Ac, H3K18Ac, H3K27Ac and H3 (Cell Signaling), followed by anti-rabbit IgG (Thermo Scientific) secondary antibodies.

PCAF = biological target: T2, PCAF (Homo sapiens, UniProt Q92831); assay: PCAF HAT inhibition assay; assay type: biochemical
T2 construct: made in house
From the text: Humans have three classes of histone/protein lysine acetyltransferases with distinct conserved motifs and structures, including p300/CBP, Gcn5-related N-acetyltransferase (GNAT) and MYST (MOZ, Ybf2, Sas2 and Tip60) family of HATs. […] CBP is a homolog of p300. […] PCAF (p300/CBP associating factor) is a member of the GNAT family, while Myst3 belongs to the MYST family of HATs.
The HAT domain (1195-1673) of human p300 was cloned, inserted into pGEX-KG vector and the DNA sequence was verified by sequencing. The p300-HAT expression plasmid was transformed into E. coli BL21-CodonPlus strain (Agilent) and cultured at 37° C. in LB medium containing ampicillin (50 µg/mL) and chloramphenicol (34 µg/mL). After the optical density of the bacterial culture reached ~0.9 at 600 nm, p300 HAT expression was induced by adding 300 µM isopropylthiogalactoside (IPTG) at 18° C. for 48 hours. Cells were collected, lysed, centrifuged for 20 min at 20,000 rpm. The supernatant was subjected to column chromatography with glutathione sepharose resins. The recombinant GST-p300-HAT fusion protein was obtained in ~90% purity (SDS-PAGE) by elution with 10 mM of glutathione solution, which was further purified using a Superdex 200 gel filtration column chromatography. CBP, PCAF and Myst3 HATs were obtained using similar methods.
To determine inhibitory activity, a compound with concentrations ranging from 100 nM to 10 µM was incubated with p300-HAT (10 nM) in 20 µL of 50 mM phosphate buffer (pH = 7.0) containing 0.01% Brij-35 for 10 min at 25° C. Histone H3 peptide (1-21) (20 µM) and Acetyl-CoA (1 µM ^3H—Ac—CoA and 19 µM Ac—CoA) were added to initiate the reaction. After 30 min at 25° C., the reaction was stopped by adding 6 N formic acid (5 µL). 20 µL of reaction mixture was then transferred to a small piece of P81 filter paper (Whatman) that binds histone H3 peptide. The filter paper was washed 3x with 50 mM NaHCO3, dried, and transferred into a scintillation vial containing 2 mL of scintillation cocktail. Radioactivity on the filter paper was measured with a Beckman LS-6500 scintillation counter. […]

PANC-1 = assay: Cell growth inhibition, PANC-1 (MTT); assay type: cell-based; conditions: PANC-1, 5 days; read-out: EC50, antiproliferative activity
Procedure: as §1

MCF-7 (Tam-R) = assay: Cell growth inhibition, tamoxifen-resistant MCF-7; assay type: cell-based; conditions: read-out: EC50, antiproliferative activity
Procedure: as §1

MCF-7 = assay: Cell growth inhibition, MCF-7; assay type: cell-based; conditions: read-out: EC50, antiproliferative activity
Procedure: as §1

T2 sequence (Q92831 whole entry): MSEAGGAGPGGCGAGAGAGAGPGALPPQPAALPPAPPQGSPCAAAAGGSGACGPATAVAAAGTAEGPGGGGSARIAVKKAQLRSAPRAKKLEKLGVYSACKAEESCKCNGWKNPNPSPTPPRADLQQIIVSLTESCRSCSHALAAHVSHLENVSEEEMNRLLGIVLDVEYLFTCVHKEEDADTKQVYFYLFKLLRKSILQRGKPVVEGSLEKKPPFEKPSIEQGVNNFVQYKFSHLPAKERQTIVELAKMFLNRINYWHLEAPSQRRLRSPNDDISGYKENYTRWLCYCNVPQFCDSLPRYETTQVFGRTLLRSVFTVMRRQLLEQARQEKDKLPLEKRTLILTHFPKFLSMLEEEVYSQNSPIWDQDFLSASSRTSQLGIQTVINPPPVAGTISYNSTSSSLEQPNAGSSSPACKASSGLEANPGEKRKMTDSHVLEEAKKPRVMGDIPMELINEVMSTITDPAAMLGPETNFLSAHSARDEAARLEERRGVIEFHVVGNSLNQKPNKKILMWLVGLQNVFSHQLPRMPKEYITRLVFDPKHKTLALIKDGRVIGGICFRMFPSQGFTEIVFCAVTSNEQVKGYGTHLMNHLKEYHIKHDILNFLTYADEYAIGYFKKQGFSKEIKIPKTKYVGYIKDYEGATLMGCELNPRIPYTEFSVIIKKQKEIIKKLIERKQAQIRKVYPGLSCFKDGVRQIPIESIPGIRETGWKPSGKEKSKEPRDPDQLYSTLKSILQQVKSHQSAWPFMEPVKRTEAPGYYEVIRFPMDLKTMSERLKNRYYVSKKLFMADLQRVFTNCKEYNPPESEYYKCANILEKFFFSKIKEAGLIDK
T1 sequence (Q92794 whole entry): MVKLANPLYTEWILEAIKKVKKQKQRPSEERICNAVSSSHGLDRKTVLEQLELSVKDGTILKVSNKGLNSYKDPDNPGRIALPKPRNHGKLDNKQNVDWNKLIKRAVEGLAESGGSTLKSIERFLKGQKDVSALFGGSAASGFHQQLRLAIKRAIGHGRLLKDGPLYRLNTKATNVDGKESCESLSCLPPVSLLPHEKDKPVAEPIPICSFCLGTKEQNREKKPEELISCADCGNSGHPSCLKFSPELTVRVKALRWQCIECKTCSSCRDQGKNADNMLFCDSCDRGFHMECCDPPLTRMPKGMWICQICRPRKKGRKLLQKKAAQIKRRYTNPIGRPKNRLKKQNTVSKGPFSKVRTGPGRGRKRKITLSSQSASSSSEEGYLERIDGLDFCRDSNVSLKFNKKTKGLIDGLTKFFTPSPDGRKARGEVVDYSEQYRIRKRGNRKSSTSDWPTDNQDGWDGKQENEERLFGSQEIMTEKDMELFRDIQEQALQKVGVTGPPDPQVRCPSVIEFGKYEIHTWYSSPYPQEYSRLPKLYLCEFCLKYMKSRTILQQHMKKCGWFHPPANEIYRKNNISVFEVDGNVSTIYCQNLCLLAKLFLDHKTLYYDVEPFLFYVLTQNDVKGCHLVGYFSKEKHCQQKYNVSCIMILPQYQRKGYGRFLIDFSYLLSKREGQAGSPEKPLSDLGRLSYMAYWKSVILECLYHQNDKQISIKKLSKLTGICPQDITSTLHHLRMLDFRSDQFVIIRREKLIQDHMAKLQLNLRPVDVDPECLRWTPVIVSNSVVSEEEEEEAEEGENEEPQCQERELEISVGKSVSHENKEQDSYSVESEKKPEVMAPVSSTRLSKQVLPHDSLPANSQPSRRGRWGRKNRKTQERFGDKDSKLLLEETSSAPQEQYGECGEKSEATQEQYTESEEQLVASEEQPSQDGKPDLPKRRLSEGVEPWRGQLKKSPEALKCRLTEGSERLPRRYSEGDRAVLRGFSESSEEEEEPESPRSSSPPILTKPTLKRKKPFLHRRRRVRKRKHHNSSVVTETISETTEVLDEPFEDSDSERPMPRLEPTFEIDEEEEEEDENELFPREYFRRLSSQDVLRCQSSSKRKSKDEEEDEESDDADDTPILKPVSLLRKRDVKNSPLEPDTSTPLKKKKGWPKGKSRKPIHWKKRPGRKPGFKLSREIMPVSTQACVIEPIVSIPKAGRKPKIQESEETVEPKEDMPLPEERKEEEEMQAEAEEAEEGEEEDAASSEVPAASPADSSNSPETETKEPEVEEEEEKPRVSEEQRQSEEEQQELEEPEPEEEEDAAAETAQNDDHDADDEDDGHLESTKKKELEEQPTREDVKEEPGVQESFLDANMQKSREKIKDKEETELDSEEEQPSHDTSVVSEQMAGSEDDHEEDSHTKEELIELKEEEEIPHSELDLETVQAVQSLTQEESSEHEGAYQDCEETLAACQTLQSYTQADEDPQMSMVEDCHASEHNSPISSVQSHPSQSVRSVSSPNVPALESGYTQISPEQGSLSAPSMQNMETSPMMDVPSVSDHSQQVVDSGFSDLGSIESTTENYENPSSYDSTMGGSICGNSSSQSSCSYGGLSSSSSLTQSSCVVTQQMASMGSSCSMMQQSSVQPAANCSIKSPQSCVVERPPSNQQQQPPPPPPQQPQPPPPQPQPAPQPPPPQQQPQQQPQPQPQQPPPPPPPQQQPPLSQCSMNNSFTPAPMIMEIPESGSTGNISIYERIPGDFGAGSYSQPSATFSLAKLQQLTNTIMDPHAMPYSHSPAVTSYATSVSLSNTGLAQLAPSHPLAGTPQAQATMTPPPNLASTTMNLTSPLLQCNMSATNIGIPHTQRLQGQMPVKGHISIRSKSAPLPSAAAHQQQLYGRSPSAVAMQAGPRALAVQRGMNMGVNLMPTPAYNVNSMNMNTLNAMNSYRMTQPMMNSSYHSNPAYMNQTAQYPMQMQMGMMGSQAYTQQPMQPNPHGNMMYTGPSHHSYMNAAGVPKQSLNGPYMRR

EC50 (MDA-PANC-28): 2.8 µM | inhibition of Myst3 (Myst3; at 20 µM): < 10% | inhibition of Myst3 activity (in words) (Myst3; at 20 µM): did not significantly inhibit | IC50 (Myst3; read-out: IC50 against Myst3): > 20 µM | inhibition of PCAF (PCAF; at 20 µM): < 10% | inhibition of PCAF activity (in words) (PCAF; at 20 µM): did not significantly inhibit | IC50 (PCAF; read-out: IC50 against PCAF): > 20 µM | EC50 (PANC-1): 1 µM | EC50 (MCF-7 (Tam-R)): 3.4 µM | EC50 (MCF-7): 2.8 µM and ~3 µM
SMILES: CC(C)(C)c1ccc(-c2cc(CNCC3CCNCC3)sc2-c2ccc(C(C)(C)C)cc2)cc1 [Compound 12]
cellular acetylation of histone H3K9, H3K18 and H3K27 (Kasumi-1 leukemia cells): significantly inhibit; also recorded: inhibited
